# Results published in the supplement of paper PMC10307832.
# Columns and labels:
# Test in all cases: relative viability (nuclei count vs DMSO), 5 days (fraction); higher = more cells survive
# BI-2536 + Lapatinib = compound: CC[C@@H]1C(=O)N(C)c2cnc(Nc3ccc(C(=O)NC4CCN(C)CC4)cc3OC)nc2N1C1CCCC1 [BI-2536] + CS(=O)(=O)CCNCc1ccc(-c2ccc3ncnc(Nc4ccc(OCc5cccc(F)c5)c(Cl)c4)c3c2)o1 [Lapatinib] (partner 2 µM)
# Summary of the method: (§1)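 Relative viability is defined as nuclei in treated wells over nuclei in vehicle wells. Duplicate plates were run and medians reported. Lung cancer cell lines in 1536-well plates were dosed by pin tool one day after seeding, with one drug or with a fixed anchor-drug dose plus five library-drug doses (not always all listed) in √10 steps, and nuclei were counted after 5 days.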
# [1] = compound: CC1CC(=O)N(C2=CN=C(N=C2N1C3CCCC3)NC4=C(C=C(C=C4)C(=O)NC5CCN(CC5)C)OC)C [NPK76-II-72-1] + N=C(N)NC(=N)NCCc1ccccc1 [Phenformin] (partner 250 µM)
# Summary of the method: as §1
# [2] = compound: CC1CC(=O)N(C2=CN=C(N=C2N1C3CCCC3)NC4=C(C=C(C=C4)C(=O)NC5CCN(CC5)C)OC)C [NPK76-II-72-1] + O=C(CCCCCCC(=O)Nc1ccccc1)NO [Vorinostat] (partner 1 µM)
# Summary of the method: as §1
# BI-2536 + Vorinostat = compound: CC[C@@H]1C(=O)N(C)c2cnc(Nc3ccc(C(=O)NC4CCN(C)CC4)cc3OC)nc2N1C1CCCC1 [BI-2536] + O=C(CCCCCCC(=O)Nc1ccccc1)NO [Vorinostat] (partner 1 µM)
# Summary of the method: as §1
Cell Line,relative viability (BI-2536 + Lapatinib; first compound 0.01 µM),relative viability (BI-2536 + Lapatinib; first compound 0.03162 µM),relative viability (BI-2536 + Lapatinib; first compound 0.1 µM),relative viability (BI-2536 + Lapatinib; first compound 0.3162 µM),relative viability (BI-2536 + Lapatinib; first compound 1 µM),relative viability ([1]; first compound 0.01 µM),relative viability ([1]; first compound 0.03162 µM),relative viability ([1]; first compound 0.1 µM),relative viability ([1]; first compound 0.3162 µM),relative viability ([1]; first compound 1 µM),relative viability ([2]; first compound 0.01 µM),relative viability ([2]; first compound 0.03162 µM),relative viability ([2]; first compound 0.1 µM),relative viability ([2]; first compound 0.3162 µM),relative viability ([2]; first compound 1 µM),relative viability (BI-2536 + Vorinostat; first compound 0.01 µM),relative viability (BI-2536 + Vorinostat; first compound 0.03162 µM),relative viability (BI-2536 + Vorinostat; first compound 0.1 µM),relative viability (BI-2536 + Vorinostat; first compound 0.3162 µM),relative viability (BI-2536 + Vorinostat; first compound 1 µM)
SK-LU-1,0.815,0.715,0.495,0.252,0.189,0.517,0.585,0.662,0.528,0.537,0.722,0.77,0.756,0.77,0.851,0.727,0.643,0.271,0.247,0.247
NCI-H1650,0.775,0.649,0.176,0.151,0.124,0.361,0.374,0.468,0.349,0.396,0.571,0.508,0.658,0.57,0.555,0.624,0.555,0.276,0.169,0.142
NCI-H2009,0.869,0.64,0.101,0.158,0.0981,0.491,0.513,0.446,0.462,0.477,0.696,0.713,0.705,0.728,0.77,0.745,0.689,0.373,0.193,0.152
LOU-NH91,0.794,0.756,0.663,0.284,0.291,0.621,0.709,0.706,0.563,0.884,0.89,0.935,0.763,0.814,1.06,0.915,0.865,0.443,0.311,0.264
NCI-H2405,1.01,0.97,0.301,0.146,0.448,0.379,0.386,0.4,0.35,0.419,0.949,0.791,1.04,1.07,1.03,0.981,0.608,0.35,0.278,0.337
LCLC-97TM1,0.919,0.737,0.114,0.13,0.117,0.401,0.464,0.388,0.398,0.416,0.682,1.03,0.561,0.61,0.814,0.721,0.787,0.0652,0.078,0.0571
NCI-H596,1.17,1.05,0.571,0.346,0.273,0.649,0.777,0.789,0.782,0.774,0.718,0.615,0.696,0.631,0.723,0.644,0.664,0.551,0.228,0.206
NCI-H727,0.972,0.853,0.512,0.268,0.242,0.49,0.435,0.481,0.411,0.672,1.23,1.33,1.2,1.22,1.29,1.12,1.11,0.797,0.513,0.4
H3255,0.256,0.225,0.076,0.117,0.143,0.365,0.326,0.376,0.31,0.37,0.873,0.605,0.722,,0.797,0.736,0.786,0.447,0.519,0.306
SK-MES-1,0.465,0.45,0.503,0.213,0.186,0.649,0.718,0.646,0.643,0.722,1.06,1.05,1.12,1.17,1.22,1.17,0.934,0.441,0.136,0.188
NCI-H1437,0.784,0.718,0.237,0.116,0.122,0.312,0.288,0.297,0.293,0.333,0.779,0.907,0.736,0.748,0.894,0.809,0.751,0.394,0.301,0.312
LU99A,0.889,1.07,0.193,0.202,0.211,0.829,0.814,0.855,0.838,0.95,0.437,0.492,0.62,0.535,0.528,0.406,0.405,0.151,0.162,0.163
HCC-827,0.209,0.117,0.176,0.178,0.157,0.407,0.448,0.407,0.409,0.404,0.825,0.9,0.831,0.817,0.942,0.884,0.943,0.665,0.222,0.227
LK-2,0.883,0.81,0.336,0.163,0.199,0.379,0.583,0.504,0.206,0.561,0.451,0.263,0.36,0.165,0.327,0.181,0.242,0.15,0.104,0.155
HCC-366,1.06,0.682,0.04,0.0163,0.0221,0.593,0.669,0.65,0.559,0.607,0.358,0.361,0.394,0.322,0.461,0.336,0.347,0.0476,0.0183,0.0214
BEN,0.631,0.578,0.479,0.228,0.235,0.229,0.228,0.276,0.245,0.253,0.61,0.711,0.598,0.591,0.636,0.574,0.452,0.412,0.386,0.38
NCI-H23,1.07,0.773,0.168,0.171,0.147,0.752,0.788,0.684,0.718,0.85,0.609,0.657,0.637,0.515,0.627,0.527,0.555,0.133,0.133,0.157
NCI-H1395,0.868,0.905,0.415,0.353,0.733,0.466,0.422,0.457,0.429,0.405,0.711,0.67,0.642,0.721,0.84,0.669,0.431,0.285,0.311,0.356
201T,0.946,1.03,1.03,1.04,0.38,0.423,0.461,0.407,0.461,0.433,0.803,0.989,0.93,0.962,1.14,0.967,0.98,0.841,0.254,0.31
NCI-H2170,0.291,0.273,0.205,0.199,0.171,0.412,0.432,0.402,0.404,0.461,0.731,0.855,0.823,0.38,0.941,0.787,0.736,0.159,0.144,0.175
NCI-H460,1.04,0.257,0.206,0.0105,0.011,0.501,0.512,0.582,0.522,0.522,0.684,0.799,0.703,0.748,0.636,0.735,1.07,0.119,0.0148,0.014
NCI-H661,0.498,0.543,0.398,0.224,0.179,0.278,0.255,0.282,0.279,0.245,0.772,0.785,0.755,0.735,0.795,0.714,0.323,0.292,0.302,0.306
HCC-15,0.857,0.81,0.496,0.248,0.123,0.456,0.564,0.462,0.444,0.494,0.785,0.914,0.814,0.767,0.91,0.675,0.769,0.615,0.137,0.141
ABC-1,1.23,1.39,1.04,0.643,0.529,0.264,0.223,0.202,0.258,0.28,1,1.13,0.356,1.36,1.07,1.22,1.06,0.613,0.418,0.51
EPLC-272H,0.894,0.828,,0.483,0.11,0.304,,0.259,0.229,0.343,0.403,0.4,0.456,0.574,0.41,0.339,0.126,0.0766,0.112,0.0972
